25 compounds from patent US5686424A, “2-oxoethyl derivatives as immunosuppressants” (Miles Inc., priority 1995, dated 1997) can be followed below.

One test concerns human T-cells. In words: Suppression of Human T-Cell Proliferation Assay (PHA-stimulated, [3H]-thymidine incorporation). To be noted: concentration inhibiting [3H]-thymidine incorporation of PHA-stimulated T-cells by 50%, 72 hours; TABLE 2; read-out: IC50. The class given is cell-based. Put shortly: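 Read-out is scintillation counting of [3H]-thymidine pulsed for the last 6 h of a 72 h, 37° C culture. Human T-cells, isolated from LeukoPaks by Lymphoprep and sheep-erythrocyte rosetting, were PHA-M activated (40 μg/ml stock) with compound dilutions added in duplicate wells.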

In a further test the target is FKBP (Homo sapiens, UniProt P62942). In words: PPIase Inhibition Assay. The class given is biochemical. To be noted: concentration of inhibitor required for 50% inhibition of enzyme activity; FKBP, substrate Succinyl-Ala-Phe-Pro-Phe-para-nitroanilide; TABLE I. Put shortly: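 Rates from p-nitroaniline release at 390 nm over 90 sec, fitted first-order, were converted to % activity remaining relative to uncatalyzed and uninhibited rates, with IC50 from linear regression of V-/V+ against inhibitor level. FKBP acted on Suc-Ala-Phe-Pro-Phe-pNA with excess chymotrypsin, HEPES pH 7.8, cold buffer.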

Another test deals with NF-AT. The test can be described thus: NF-AT Inhibition Assay Directed β-Galactosidase Expression in FGL-5 cells. Type of test: cell-based. To be noted: 50% inhibition of NF-AT directed β-galactosidase activity in FGL-5 cells stimulated with phorbol dibutyrate and ionomycin; TABLE 3. Put shortly:
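FGL-5 Jurkat cells (3 million cells/ml) carry NF-AT-site-driven lacZ. They were stimulated with phorbol dibutyrate plus ionomycin and incubated with compound 16-18 h at 37 °C, in duplicate wells with matched ethanol or DMSO vehicle controls. β-Galactosidase was read as fluorescence from 4-methylumbelliferyl-β-D-galactoside cleavage, giving percent inhibition.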

Counter-ions that a name gives are not always drawn.

Chain of FKBP (P62942 whole entry): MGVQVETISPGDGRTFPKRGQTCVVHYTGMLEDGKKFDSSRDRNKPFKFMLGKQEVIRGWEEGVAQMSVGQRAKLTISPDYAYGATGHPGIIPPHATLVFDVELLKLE

For `CC[C@H](C)[C@H](NC(=O)[C@@H]1CCCN1CC(=O)c1ccccc1OC(=O)c1ccccc1)C(=O)NCc1ccccc1` [Example 103, L-Isoleucine, N-[1-(2-(2-Benzoyloxyphenyl)-2-Oxoethyl)-L-Prolyl] Benzylamide], the figures for the concentration for half-maximal inhibition (IC50) in the test on human T-cells, against FKBP and with NF-AT were above 15 µM, below 5 µM and above 15 µM, respectively.

Take `CC[C@H](C)[C@H](NC(=O)[C@@H]1CCCN1CC(=O)c1cccc(Oc2ccccc2)c1)C(=O)NCc1ccccc1` [Example 104, L-Isoleucine, N-[1-(2-(3-Phenoxyphenyl)-2-Oxoethyl)-L-Prolyl] Benzylamide]: the IC50 in the test on human T-cells was above 15 µM; on FKBP, below 5 µM; in the test with NF-AT it was above 15 µM.

Take `CC[C@H](C)[C@H](NC(=O)[C@@H]1CCCN1CC(=O)c1ccccc1Oc1ccccc1)C(=O)NCc1ccccc1` [Example 105, L-Isoleucine, N-[1-(2-(2-Phenoxyphenyl)-2-Oxoethyl)-L-Prolyl] Benzylamide]: the IC50 is above 15 µM with human T-cells, below 5 µM against FKBP and above 15 µM with NF-AT.

Take `CCOc1cc(C(=O)CN2CCC[C@H]2C(=O)N[C@H](C(=O)NCc2ccccc2)[C@@H](C)CC)cc(OCC)c1OCC` [Example 106, L-Isoleucine, N-[1-(2-(3,4,5-Triethoxyphenyl)-2-Oxoethyl)-L-Prolyl] Benzylamide]: the figures for the 50% inhibitory concentration (IC50) in the test with human T-cells, on FKBP and with NF-AT were above 15 µM, below 5 µM and above 15 µM, respectively.

Turning to `CC[C@H](C)[C@H](NC(=O)[C@@H]1CCCN1CC(=O)c1ccc2c(c1)OCO2)C(=O)NCc1ccccc1` [Example 107, L-Isoleucine, N-[1-(2-(Benzo[1,3]dioxol-5-yl)-2-Oxoethyl)-L-Prolyl] Benzylamide], the figures for the half-inhibitory concentration (IC50) with human T-cells, at FKBP and with NF-AT were 1 µM, below 5 µM and 0.6 µM, respectively.

For `CC[C@H](C)[C@H](NC(=O)[C@@H]1CCCN1CC(=O)c1ccc(OCCOc2ccccc2)cc1)C(=O)NCc1ccccc1` [Example 108, L-Isoleucine, N-[1-{2-Oxo-2-[4-(2-Phenoxyethoxy)-Phenyl]-Ethyl}-L-Prolyl] Benzylamide], the values for the 50% inhibitory concentration (IC50) with human T-cells, against FKBP and with NF-AT were above 15 µM, below 5 µM and above 15 µM, respectively.

In the case of `CC[C@H](C)[C@H](NC(=O)[C@@H]1CCCN1CC(=O)c1ccc(Oc2ccccc2)cc1)C(=O)NCc1ccccc1` [Example 109, L-Isoleucine, N-[1-(2-(4-Phenoxyphenyl)-2-Oxoethyl)-L-Prolyl] Benzylamide], the values for the IC50 with human T-cells, on FKBP and in the test with NF-AT were 5 µM, below 5 µM and above 15 µM, respectively.

With `CC[C@H](C)[C@H](NC(=O)[C@@H]1CCCN1CC(=O)c1c(OC)cc(OC)cc1OC)C(=O)NCc1ccccc1` [Example 110, L-Isoleucine, N-[1-(2-(2,4,6-Trimethoxyphenyl)-2-Oxoethyl)-L-Prolyl] Benzylamide], the 50% inhibitory concentration (IC50) in the test on human T-cells is 6 µM; at FKBP it was below 5 µM; in the test with NF-AT, above 15 µM.

On to `CC[C@H](C)[C@H](NC(=O)[C@@H]1CCCN1CC(=O)c1cccc(OC)c1OC)C(=O)NCc1ccccc1` [Example 111, L-Isoleucine, N-[1-(2-(2,3-Dimethoxyphenyl)-2-Oxoethyl)-L-Prolyl] Benzylamide], for which the half-inhibitory concentration (IC50) in the test with human T-cells was 7 µM; on FKBP it was below 5 µM; with NF-AT, above 15 µM.

Turning to `CC[C@H](C)[C@H](NC(=O)[C@@H]1CCCN1CC(=O)c1c(OC)cccc1OC)C(=O)NCc1ccccc1` [Example 112, L-Isoleucine, N-[1-(2-(2,6-Dimethoxyphenyl)-2-Oxoethyl)-L-Prolyl] Benzylamide], the 50% inhibitory concentration (IC50) is 7 µM with human T-cells, below 5 µM at FKBP and above 15 µM in the test on NF-AT.

Turning to `CC[C@H](C)[C@H](NC(=O)[C@@H]1CCCN1CC(=O)C1(c2ccc(C)cc2)CCCCC1)C(=O)NCc1ccccc1` [Example 113, L-Isoleucine, N-[1-(2-(1-(4-Methylphenyl)cyclohexyl)-2-Oxoethyl)-L-Prolyl] Benzylamide], the IC50 was 8 µM in the test on human T-cells, below 5 µM on FKBP and above 15 µM in the test on NF-AT.

As to `CC[C@H](C)[C@H](NC(=O)[C@@H]1CCCN1CC(=O)C1(c2ccc(Cl)cc2)CCCCC1)C(=O)NCc1ccccc1` [Example 114, L-Isoleucine, N-[1-(2-(1-(4-Chlorophenyl)cyclohexyl)-2-Oxoethyl)-L-Prolyl] Benzylamide], the IC50 in the test with human T-cells is 7 µM; against FKBP, below 5 µM; in the test on NF-AT it was 10 µM.

For `CC[C@H](C)[C@H](NC(=O)[C@@H]1CCCN1CC(=O)c1ccc(OC)c(OC)c1OC)C(=O)NCc1ccccc1` [Example 115, L-Isoleucine, N-[1-(2-(2,3,4-Trimethoxyphenyl)-2-Oxoethyl)-L-Prolyl] Benzylamide], the values for the IC50 in the test with human T-cells, against FKBP and in the test with NF-AT were 7 µM, above 5 µM and above 15 µM, respectively.

As for `CC[C@H](C)[C@H](NC(=O)[C@@H]1CCCN1CC(=O)C1(c2ccccc2)CCCCC1)C(=O)NCc1ccccc1` [Example 116, L-Isoleucine, N-[1-(2-(1-Phenylcyclohexyl)-2-Oxoethyl)-L-Prolyl] Benzylamide], the half-maximal inhibitory concentration (IC50) in the test with human T-cells is 6 µM; against FKBP it was below 5 µM; with NF-AT, 14 µM.

`CC[C@H](C)[C@H](NC(=O)[C@@H]1CCCN1CC(=O)c1cc(OC)c(OC)cc1OC)C(=O)NCc1ccccc1` [Example 117, L-Isoleucine, N-[1-(2-(2,4,5-Trimethoxyphenyl)-2-Oxoethyl)-L-Prolyl] Benzylamide]: the half-inhibitory concentration (IC50) is above 15 µM in the test with human T-cells, below 5 µM against FKBP and above 15 µM in the test on NF-AT.

Consider `COc1cc(C(=O)CN2CCC[C@H]2C(=O)NCc2ccccc2)cc(OC)c1OC` [Example 120, L-Proline, 1-[2-(3,4,5-Trimethoxyphenyl)-2-Oxoethyl] Benzylamide Hydrochloride], for which the IC50 is 7 µM in the test with human T-cells, above 5 µM at FKBP and above 15 µM with NF-AT.

With `COc1cc(C(=O)CN2CCC[C@H]2C(=O)NCCc2ccccc2)cc(OC)c1OC` [Example 121, L-Proline, 1-[2-(3,4,5-Trimethoxyphenyl)-2-Oxoethyl] 2-Phenethylamide Hydrochloride], the figures for the IC50 in the test on human T-cells, at FKBP and in the test on NF-AT were 7 µM, above 5 µM and above 15 µM, respectively.

Take `COc1cc(C(=O)CN2CCC[C@H]2C(=O)NCCCc2ccccc2)cc(OC)c1OC` [Example 122, L-Proline, 1-[2-(3,4,5-Trimethoxyphenyl)-2-Oxoethyl] 3-Phenylpropylamide Hydrochloride]: the figures for the 50% inhibitory concentration (IC50) in the test with human T-cells, at FKBP and in the test with NF-AT were 8 µM, above 5 µM and above 15 µM, respectively.

Turning to `COc1cc(C(=O)CN2CCC[C@H]2C(=O)NCCCCc2ccccc2)cc(OC)c1OC` [Example 123, L-Proline, 1-[2-(3,4,5-Trimethoxyphenyl)-2-Oxoethyl] 4-Phenylbutylamide Hydrochloride], the results for the 50% inhibitory concentration (IC50) with human T-cells, against FKBP and with NF-AT were 10 µM, above 5 µM and above 15 µM, respectively.

`COc1cc(C(=O)CN2CCC[C@H]2C(=O)NCCc2ccccn2)cc(OC)c1OC` [Example 124, L-Proline, 1-[2-(3,4,5-Trimethoxyphenyl)-2-Oxoethyl] 2-(Pyrid-2-yl)ethylamide Dihydrochloride]: the IC50 with human T-cells is above 15 µM; against FKBP, above 5 µM; in the test on NF-AT, above 15 µM.

`COc1cc(C(=O)CN2CCC[C@H]2C(=O)NCCc2ccc(N)cc2)cc(OC)c1OC` [Example 125, L-Proline, 1-[2-(3,4,5-Trimethoxyphenyl)-2-Oxoethyl] 2-(4-aminophenyl)ethylamide Dihydrochloride]: the IC50 is above 15 µM in the test with human T-cells, above 5 µM at FKBP and above 15 µM in the test with NF-AT.

`C=CCOC(=O)Nc1ccc(CCCOC(=O)[C@@H]2CCCN2CC(=O)c2cc(OC)c(OC)c(OC)c2)cc1` [Example 126, L-Proline, 1-[2-(3,4,5-Trimethoxyphenyl)-2-Oxoethyl] 3-(4-[N-Carboallyloxy]aminophenyl)propyl Ester Hydrochloride]: the IC50 in the test with human T-cells is 10 µM; against FKBP, above 5 µM; in the test with NF-AT, above 15 µM.

Take `COc1cc(C(=O)CN2CCC[C@H]2C(=O)NCC(=O)c2ccccc2)cc(OC)c1OC` [Example 127, L-Proline, 1-[2-(3,4,5-Trimethoxyphenyl)-2-Oxoethyl] 2-Phenyl-2-oxoethylamide]: the IC50 with human T-cells is above 15 µM; on FKBP, above 5 µM; with NF-AT it was above 15 µM.

`COc1cc(C(=O)CN2CCC[C@H]2C(=O)NCC2CCCO2)cc(OC)c1OC` (stereo partly drawn) [Example 128, L-Proline, 1-[2-(3,4,5-Trimethoxyphenyl)-2-Oxoethyl] Tetrahydrofurfurylamide]: the half-maximal inhibitory concentration (IC50) was 4 µM in the test on human T-cells, above 5 µM against FKBP and above 15 µM in the test on NF-AT.

As to `COc1cc(C(=O)CN2CCC[C@H]2C(=O)NCc2cccc3ccccc23)cc(OC)c1OC` [Example 129, L-Proline, 1-[2-(3,4,5-Trimethoxyphenyl)-2-Oxoethyl] Naphthalen-1-ylmethylamide], the half-maximal inhibitory concentration (IC50) in the test on human T-cells was 10 µM; at FKBP, above 5 µM; in the test on NF-AT, above 15 µM.
